Results: patent US5652105A, “Substrate for detection of mammalian 5-C-DNA methyltransferase” (Health Research, Inc., priority 1995, dated 1997)
[5mC] = 5-methylcytosine

Assays:
[1] = system: bacterial SssI methyltransferase; test: DNA methylase substrate activity with bacterial SssI enzyme preparation; assay type: biochemical; details: Table 3; bacterial SssI enzyme preparation; 0.25 μg oligomer; average of 2 expts; background 1351
Description: They are labeled Sense (S), Antisense (AS), Methylated Antisense 1 (M1) and Methylated Antisense 2 (M2). […] This property of M2 provides an approach to accurately monitoring levels of DNA methyltransferase activity in clinically obtained tissue samples that might otherwise be contaminated by bacteria, since bacterial DNA methyltransferase activity would be excluded as a component of this measurement.
RESULTS ARE AVERAGE OF 2 EXPTS. BACTERIAL SSS1 ENZYME PREPARATION. ASSAYE

[2] = system: murine DNA 5-C-MTase; test: Methylation assay: methyl transfer from [methyl-3H]AdoMet to ODNs by DNA methyltransferase from Friend erythroleukemia cell nuclei; assay type: biochemical; details: for DNA METHYLASE (FL) SUBSTRATE ACTIVITY, ACTIVITY (CPM): Table 4, single and double stranded constructs, average of 2 expts, background 1813; for RELATIVE ACTIVITY (rate of methylation relative to an equal amount of AS): Table 6, single-stranded ODN; for ACTIVITY (cpm), DNA methylase (FL): Table 5, S + M1 and its 5-fluorocytosine containing double stranded analogs; for rate of methylation relative to unmethylated A (times): ODNs with 5MeC in position 7 designed to form or not to form the stem-loop
Description: The phosphoramidite of 5-fluorodeoxycytidine (5FdC) and unmodified 5-methyl deoxycytosine (5MdC) and 5FC-containing ODNs were synthesized and purified as described in Marasco, C. J. et al., J. Org. […] 5MdC phosphoramidite is commercially available. ss ODNs were heated to 90° C. for 10 min and quickly chilled on ice immediately prior to assay. […] For ds ODNs, an equimolar mixture of complementary ODNs was heated to 90° C. for 10 min and slowly cooled to room temperature.
Preparation of Murine DNA 5-C-MTase. The DNA 5-C-MTase used in these studies was the 100,000×g supernatant of a 0.3M NaCl extract of Friend erythroleukemia cell nuclei.
Methylation Assay. Reaction mixtures (50 μl ) in 0.1M imidazole, pH 7.4/20 mM EDTA/0.5 mM dithiothreitol contained 0.5 μg of each ODN indicated, ≈0.6 units of DNA 5-C-MTase (1 unit transfers 1 pmol to A (AS)·A'Mp (M1) per min; see Table 7), and 2.8 μCi (1 Ci=37 GBq) of [methyl-^3 H]AdoMet (AdoMet=S-adenosylmethionine) (8 μM). […] For accuracy, methylation rates <5 pmol/30 min were measured in quadrupled reaction mixtures (200 μl ). After incubation for 30 min at 37° C., ODNs were processed for quantitation of radiolabel as described (20) with 25 μg of salmon sperm DNA added as carrier prior to perchloric acid precipitation.
All assays were performed in duplicate.

[3] = system: murine DNA 5-C-MTase; test: as above; assay type: biochemical; details: Table 2; enzyme preparation from Friend leukemia cells; 1 μg oligomer; average of 2 expts; background 2691
[4] = target: T1, DNA 5-C-methyltransferase (murine, Friend erythroleukemia cells) (Mus musculus, UniProt P13864 P13864:1-1620); test: inhibition; methylation rate; 5FC in substrate site inactivates enzyme; details: protein: extract; tags: 0.3 M NaCl nuclear extract, 100,000 x g supernatant; single approx. 190 kDa species forming covalent complexes
Description: (§1) Methylation Assay. Reaction mixtures (50 µl) in 0.1M imidazole, pH 7.4/20 mM EDTA/0.5 mM dithiothreitol contained 0.5 µg of each ODN indicated, ≈0.6 units of DNA 5-C-MTase (1 unit transfers 1 pmol to A (AS)·A'M_p (M1) per min; see Table 7), and 2.8 µCi (1 Ci=37 GBq) of [methyl-^3H]AdoMet (AdoMet=S-adenosylmethionine) (8 µM). Substrate C sites are in excess in the reaction, and methyl transfer is linear for >45 min. For accuracy, methylation rates <5 pmol/30 min were measured in quadrupled reaction mixtures (200 µl). After incubation for 30 min at 37° C., ODNs were processed for quantitation of radiolabel as described (20) with 25 µg of salmon sperm DNA added as carrier prior to perchloric acid precipitation.
(§2) Substitution of C residues with 5FC was used to determine which sites become substrates for enzymatic methylation in A strands containing 5MeC. It has been shown that both bacterial and mammalian DNA 5-C-MTases form stable covalent linkages with 5FC residues in DNA during the process of methylation. Under conditions of substrate excess, this leads to rapid inactivation of the enzymes. […] Thus, 5MeC in position 5 or 7 activates DNA 5-C-MTase to methylate C18 while failing to activate methylation of a C residue only two bases downstream.

[5] = target: T1, DNA 5-C-methyltransferase (murine, …); test: methylation rate; details: protein: extract; tags: 0.3 M NaCl nuclear extract, 100,000 x g supernatant; single approx. 190 kDa species forming covalent complexes
Description: as §1, §2

[6] = target: T1, DNA 5-C-methyltransferase (murine, …); test: methylation rate; details: protein: extract; tags: 0.3 M NaCl nuclear extract, 100,000 x g supernatant; single approx. 190 kDa species forming covalent complexes; remark: listed apart in the source
[7] = target: T2, Hha I DNA methyltransferase (UniProt P05102 P05102:1-327); test: ss ODNs not substrates at 37 C
T2 sequence: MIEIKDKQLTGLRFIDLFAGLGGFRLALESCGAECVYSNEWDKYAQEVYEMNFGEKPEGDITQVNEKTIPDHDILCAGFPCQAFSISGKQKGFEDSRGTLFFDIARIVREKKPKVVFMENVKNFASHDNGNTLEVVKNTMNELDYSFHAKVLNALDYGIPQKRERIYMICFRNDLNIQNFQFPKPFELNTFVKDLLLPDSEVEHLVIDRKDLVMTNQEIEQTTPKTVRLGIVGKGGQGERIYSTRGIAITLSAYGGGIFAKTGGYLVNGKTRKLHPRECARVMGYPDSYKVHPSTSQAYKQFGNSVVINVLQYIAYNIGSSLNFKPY

[8] = Table 10, ss ODNs with 5 mC and 5 FC substitutions

T1 sequence (P13864 whole entry, one chain of several): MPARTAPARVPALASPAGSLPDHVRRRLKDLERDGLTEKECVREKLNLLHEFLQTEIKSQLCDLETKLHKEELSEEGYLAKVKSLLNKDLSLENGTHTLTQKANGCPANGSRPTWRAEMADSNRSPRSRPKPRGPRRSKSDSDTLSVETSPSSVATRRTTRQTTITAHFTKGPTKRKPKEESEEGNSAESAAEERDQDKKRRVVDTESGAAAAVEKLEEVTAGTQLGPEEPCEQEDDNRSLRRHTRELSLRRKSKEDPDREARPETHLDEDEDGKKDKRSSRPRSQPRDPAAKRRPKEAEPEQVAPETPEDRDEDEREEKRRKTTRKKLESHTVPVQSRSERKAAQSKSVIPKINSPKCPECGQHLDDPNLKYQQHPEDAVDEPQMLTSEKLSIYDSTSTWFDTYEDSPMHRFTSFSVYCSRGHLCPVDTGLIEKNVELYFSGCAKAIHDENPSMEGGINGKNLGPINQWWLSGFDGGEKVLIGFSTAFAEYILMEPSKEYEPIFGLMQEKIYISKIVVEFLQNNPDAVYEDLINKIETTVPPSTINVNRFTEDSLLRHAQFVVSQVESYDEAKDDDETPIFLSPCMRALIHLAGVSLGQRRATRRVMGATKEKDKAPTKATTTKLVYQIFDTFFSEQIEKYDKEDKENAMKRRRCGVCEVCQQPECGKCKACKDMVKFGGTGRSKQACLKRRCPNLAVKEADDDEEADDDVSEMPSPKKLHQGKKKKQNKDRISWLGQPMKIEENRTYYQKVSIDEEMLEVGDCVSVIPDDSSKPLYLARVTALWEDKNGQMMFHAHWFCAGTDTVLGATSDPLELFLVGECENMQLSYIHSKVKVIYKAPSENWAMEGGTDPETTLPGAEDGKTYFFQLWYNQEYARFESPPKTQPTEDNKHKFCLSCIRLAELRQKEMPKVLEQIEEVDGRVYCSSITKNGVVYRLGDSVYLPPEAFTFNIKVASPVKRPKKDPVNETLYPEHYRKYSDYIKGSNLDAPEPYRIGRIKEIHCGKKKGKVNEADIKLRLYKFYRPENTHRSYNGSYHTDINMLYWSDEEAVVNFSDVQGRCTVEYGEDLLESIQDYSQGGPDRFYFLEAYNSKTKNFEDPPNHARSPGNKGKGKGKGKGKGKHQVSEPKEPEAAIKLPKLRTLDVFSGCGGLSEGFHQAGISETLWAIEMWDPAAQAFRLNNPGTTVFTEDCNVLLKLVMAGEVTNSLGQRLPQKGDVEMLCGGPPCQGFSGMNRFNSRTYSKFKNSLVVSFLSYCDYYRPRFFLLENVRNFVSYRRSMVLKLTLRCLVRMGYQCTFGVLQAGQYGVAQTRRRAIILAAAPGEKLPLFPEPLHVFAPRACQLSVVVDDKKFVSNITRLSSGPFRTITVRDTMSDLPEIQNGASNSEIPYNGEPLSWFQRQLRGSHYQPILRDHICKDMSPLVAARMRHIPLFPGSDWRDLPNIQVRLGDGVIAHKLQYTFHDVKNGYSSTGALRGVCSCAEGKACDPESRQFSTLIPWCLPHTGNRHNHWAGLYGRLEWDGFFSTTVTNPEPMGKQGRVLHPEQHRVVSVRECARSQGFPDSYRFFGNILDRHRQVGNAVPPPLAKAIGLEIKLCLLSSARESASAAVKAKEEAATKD

Molecule: 3' TAACGCGTAAGGCCTAGGCGCTAG 5' (chemistry not given here; listed 3' to 5') [unmethylated sense single-stranded 24mer ODN]
- DNA METHYLASE SUBSTRATE ACTIVITY, ACTIVITY (CPM) [1]: 175225 CPM
- DNA METHYLASE (FL) SUBSTRATE ACTIVITY, ACTIVITY (CPM) [2]: 1598 CPM
- DNA METHYLASE SUBSTRATE ACTIVITY, ACTIVITY (CPM) [3]: 4843 CPM

Molecule: 5' ATTGCGCATTCCGGATCCGCGATC 3' (chemistry not given here) [AS, unmethylated antisense single-stranded 24mer ODN]
- DNA METHYLASE SUBSTRATE ACTIVITY, ACTIVITY (CPM) [1]: 49282 CPM
- DNA METHYLASE (FL) SUBSTRATE ACTIVITY, ACTIVITY (CPM) [2]: 1936 CPM
- RELATIVE ACTIVITY (rate of methylation relative to an equal amount of AS) [2]: 1
- RATE (rate of methylation relative to A) [2, 8]: 1
- DNA METHYLASE SUBSTRATE ACTIVITY, ACTIVITY (CPM) [3]: 12341 CPM

Molecule: 5' ATTGCGNATTCCGGATCCGCGATC 3' (5-methylcytosine at 7, further chemistry not given here) [ASM7, ODN A (AS) with 5-methylcytosine (N) at position 7]
- RELATIVE ACTIVITY (rate of methylation relative to an equal amount of AS) [2]: 170
- Rate of methylation ([2]; Table 7, phosphorothioate end capped oligomers, standard cell free enzyme assay): 72,010 cpm/μg oligo/30 min
- RATE (rate of methylation relative to A) ([2]; Table 9, ss ODNs with 5MeC substituted for C at the sites given): 140
- RATE (rate of methylation relative to A) [2, 8]: 130
- stimulation of the rate of methylation by phosphorothioate capping ([2]; activity of D compared with C): more than 50%

Molecule: 5' ATTGCGNATTCCGGATCRGCGATC 3' (5-methylcytosine at 7, 5-fluorocytosine at 18, further chemistry not given here) [ASM7 F18, AS with 5-methylcytosine (N) at 7 and 5-fluorocytosine (R) at 18]
- inhibition of DNA methyltransferase (in words) [2]: potent
- RELATIVE ACTIVITY (rate of methylation relative to an equal amount of AS) [2]: 3
- RATE (rate of methylation relative to A) [2, 8]: 3.2

Molecule: 5' ATTGNGCATTCNGGATCNGNGATC 3' (5-methylcytosine at 5, 12, 18, 20, further chemistry not given here) [M1, AS with 5-methylcytosine (N) at 5, 12, 18, 20 (all CpG sites)]
- DNA METHYLASE SUBSTRATE ACTIVITY, ACTIVITY (CPM) [1]: 2339 CPM
- DNA METHYLASE (FL) SUBSTRATE ACTIVITY, ACTIVITY (CPM) [2]: 1373 CPM
- DNA METHYLASE SUBSTRATE ACTIVITY, ACTIVITY (CPM) [3]: 5487 CPM

Molecule: 5' GATCGCGGATCCGGAATGNGCAAT 3' (5-fluorocytosine, further chemistry not given here) [Seq. ID #14]
- ACTIVITY (cpm), DNA methylase (FL) [2]: 36,000 cpm

Molecule: 5' GATCGCGGATCNGGAATGCGCAAT 3' (5-fluorocytosine, further chemistry not given here) [Seq. ID #13]
- ACTIVITY (cpm), DNA methylase (FL) [2]: 28,000 cpm

Molecule: 5' GATCGCGGATNCGGAATGCGCAAT 3' (5-fluorocytosine, further chemistry not given here) [Seq. ID #12]
- ACTIVITY (cpm), DNA methylase (FL) [2]: 140,000 cpm

Molecule: structure 6: ODN with 5MeC in position 7 that forms a stem-loop with the same relationship between C7 and C18 as A (FIG. 7, 8) (DNA ATGACGCACCTCGTTGACGCGCTA; DNA, [5mC] at 7, backbone not given here)
- rate of methylation relative to unmethylated A (times) [2]: > 300

Molecule: structure 8: ODN with 5MeC in position 7 that forms a homodimer but no stem-loop analogous to structures 5 and 6 (FIG. 9) (DNA ATTGCGCTACTCGGATCCGGCCAT; DNA, [5mC] at 7, backbone not given here)
- rate of methylation relative to unmethylated A (times) [2]: same rate as unmethylated A

Molecule: ATTGCGCATTCCGGATCCGCGATC (ssDNA, 5mC at 5; 5-fluoro-C at 18) [ASM5 F18]
- binding signal [4]: 1 relative to A

Molecule: ATTGCGCATTCCGGATCCGCGATC (ssDNA, 5mC at 7,11,17; 5-fluoro-C at 5 [5mC at 7,11,17; 5-fluoro-C at 5]) [AMx F5]
- binding signal [5]: 170 relative to A

Molecule: GATCGCGGATCCGGAATGCGCAAT (ssDNA, 5mC at 12) [A' 5mC12]
- binding signal [6]: 67 relative to A

Molecule: GATCGCGGATCCGGAATGCGCAAT (ssDNA, 5mC at 4) [A' 5mC4]
- binding signal [6]: 0.4 relative to A

Molecule: GATCGCGGATCCGGAATGCGCAAT (ssDNA, 5mC at 21) [A' 5mC21]
- binding signal [6]: 37 relative to A

Molecule: GATCGCGGATCCGGAATGCGCAAT (ssDNA, 5mC at 6) [A' 5mC6]
- binding signal [6]: 42 relative to A

Molecule: GATCGCGGATCCGGAATGCGCAAT (ssDNA, 5mC at 6,19) [A' 5mC6,19]
- binding signal [6]: 1 relative to A

Molecule: ATTGCGCATTCCGGATCCGCGATC (ssDNA) [AS (A)]
- binding result [7]: no binding

Molecule: GATCGCGGATCCGGAATGCGCAAT (ssDNA, 5mC at 19) [A' 5mC19]
- binding signal [6]: 1 relative to A

Molecule: ATTGCGCATTCCGGATCCGCGATC (ssDNA, 5mC at 18) [ASM18]
- binding signal [6]: 12 relative to A

Molecule: ATTGCGCATTCCGGATCCGCGATC (ssDNA, 5mC at 5; 5-fluoro-C at 20) [ASM5 F20]
- binding signal [5]: 152 relative to A

Molecule: ATTGCGCATTCCGGATCCGCGATC (ssDNA, 5mC at 7,11,17; 5-fluoro-C at 12 [5mC at 7,11,17; 5-fluoro-C at 12]) [AMx F12]
- binding signal [5]: 165 relative to A

Molecule: ATTGCGCATTCCGGATCCGCGATC (ssDNA, 5mC at 20) [ASM20]
- binding signal [6]: 2.5 relative to A

Molecule: ATTGCGCATTCCGGATCCGCGATC (ssDNA, 5mC at 7,11,17; 5-fluoro-C at 18 [5mC at 7,11,17; 5-fluoro-C at 18]) [AMx F18]
- binding signal [4]: 2 relative to A

Molecule: ATTGCGCATTCCGGATCCGCGATC (ssDNA, 5mC at 7; 5-fluoro-C at 20 [5mC at 7; 5-fluoro-C at 20]) [ASM7 F20]
- binding signal [5]: 160 relative to A

Molecule: GATCGCGGATCCGGAATGCGCAAT (ssDNA, 5mC at 11) [A' 5mC11]
- binding signal [6]: 1.7 relative to A

Molecule: GATCGCGGATCCGGAATGCGCAAT (ssDNA, 5mC at 11,21) [M4 (SMx)]
- binding signal [6]: 75 relative to A

Molecule: ATTGCGCATTCCGGATCCGCGATC (ssDNA, 5mC at 7,11,17; 5-fluoro-C at 20 [5mC at 7,11,17; 5-fluoro-C at 20]) [AMx F20]
- binding signal [5]: 168 relative to A

Molecule: ATTGCGCATTCCGGATCCGCGATC (ssDNA, 5mC at 17) [ASM17]
- binding signal [6]: 3.5 relative to A
